Results as given in article PMC7926352, “Synthesis, Characterization and In Vitro Evaluation of Novel 5-Ene-thiazolo[3,2-b][1,2,4]triazole-6(5H)-ones as Possible Anticancer Agents” (Molecules, 2021).
Where two headings read alike, the source gives them in different places.

What was measured:
RPMI-8226 = conditions: RPMI-8226, Leukemia
HCT-116 = conditions: HCT-116, Colon cancer
Colon cancer cell lines = conditions: Colon cancer subpanel
CNS Cancer cell lines = conditions: CNS Cancer subpanel
Renal Cancer cell lines = conditions: Renal Cancer subpanel
HOP-92 = conditions: HOP-92, NSCLC
SK-MEL-5 = conditions: SK-MEL-5, Melanoma
MALME-3M = conditions: MALME-3M, Melanoma
SF-295 = conditions: SF-295, CNS Cancer
NCI-H226 = assay type: cell-based; conditions: NCI-H226, NSCLC
SF-268 = conditions: SF-268, CNS Cancer
M14 = conditions: M14, Melanoma
OVCAR-3 = conditions: OVCAR-3, Ovarian Cancer
NCI-H522 = conditions: NCI-H522, NSCLC
HOP-62 = conditions: HOP-62, NSCLC
DU-145 = conditions: DU-145, Prostate Cancer
K-562 = conditions: K-562, Leukemia
UACC-62 = conditions: UACC-62, Melanoma
KM12 = conditions: KM12, Colon cancer
A498 = conditions: A498, Renal Cancer
RXF 393 = conditions: RXF 393, Renal Cancer
SR = conditions: Leukemia
MCF7 = conditions: MCF7, Breast Cancer
OVCAR-4 = conditions: OVCAR-4, Ovarian Cancer
SNB-75 = conditions: SNB-75, CNS Cancer
UO-31 = conditions: UO-31, Renal Cancer
EKVX = conditions: NSCLC
[1] = system: NSCLC (Non-small Cell Lung Cancer) cell lines; conditions: NSCLC subpanel
LOX IMVI = conditions: Melanoma
SNB-19 = assay type: cell-based; conditions: SNB-19, CNS Cancer
[2] = read-out: GI50, values range inside panel

Which GI50 (RPMI-8226) does the source give for “Ethyl(Z)-4-(3-(4-chloro-2-((6-oxothiazolo[3,2-b][1,2,4]triazol-5(6H)-ylidene)methyl)phenyl)propanamido)benzoate [Compound 2i]” here?
Its GI50 is 5.37 µM.

And the TGI (RPMI-8226)?
Its TGI is 25.70 µM.

What about the GI50 (HCT-116) of the same substance?
The GI50 was 9.55 µM.

What about the TGI (HCT-116) of the same substance?
The TGI was 23.44 µM.

And the “TGI, panel MG_MID” value (Colon cancer cell lines)?
Its value is 26.51 µM.

And the “TGI, values range inside panel” value (Colon cancer cell lines)?
Its value is 21.37 to 33.11 µM.

What about the GI50 (Colon cancer cell lines; read-out: GI50, panel MG_MID) of the same substance?
Its GI50 is 12.4 µM.

What about the GI50 (Colon cancer cell lines; [2]) of the same substance?
Its GI50 is 9.55 to 16.6 µM.

And the “TGI, panel MG_MID” value (CNS Cancer cell lines)?
Its value is 27.42 µM.

And the “TGI, values range inside panel” value (CNS Cancer cell lines)?
The value was 19.05 to 44.66 µM.

What about the GI50 (CNS Cancer cell lines; read-out: GI50, panel MG_MID) of the same substance?
The GI50 was 9.85 µM.

What about the GI50 (CNS Cancer cell lines; [2]) of the same substance?
Its GI50 is 6.02 to 13.2 µM.

What about the “TGI, panel MG_MID” value (Renal Cancer cell lines) of the same substance?
The value was 27.13 µM.

And the “TGI, values range inside panel” value (Renal Cancer cell lines)?
The value was 21.37 to 31.62 µM.

And the GI50 (Renal Cancer cell lines; read-out: GI50, panel MG_MID)?
The GI50 was 13 µM.

What about the GI50 (Renal Cancer cell lines; [2]) of the same substance?
Its GI50 is 5.75 to 17.4 µM.

What about the CC50 (Renal Cancer cell lines; read-out: LC50, values range inside panel) of the same substance?
Its CC50 is 51.3 to 58.9 µM.

What about the GI50 (HOP-92) of the same substance?
The GI50 was 10.2 µM.

And the TGI (HOP-92)?
Its TGI is 29.51 µM.

What about the GI50 (SK-MEL-5) of the same substance?
The GI50 was 10.5 µM.

What about the TGI (SK-MEL-5) of the same substance?
The TGI was 21.87 µM.

And the GI50 (MALME-3M)?
The GI50 was 14.8 µM.

What about the TGI (MALME-3M) of the same substance?
Its TGI is 28.18 µM.

What about the GI50 (SF-295) of the same substance?
The GI50 was 10.5 µM.

And the TGI (SF-295)?
The TGI was 23.44 µM.

What about the GI50 (NCI-H226) of the same substance?
Its GI50 is 17 µM.

What about the LC50 (50% lethal concentration) (NCI-H226) of the same substance?
The LC50 (50% lethal concentration) was 67.6 µM.

What about the TGI (NCI-H226) of the same substance?
The TGI was 33.11 µM.

And the GI50 (SF-268)?
Its GI50 is 6.02 µM.

And the TGI (SF-268)?
Its TGI is 28.84 µM.

And the GI50 (M14)?
Its GI50 is 12.6 µM.

And the TGI (M14)?
The TGI was 27.54 µM.

What about the GI50 (OVCAR-3) of the same substance?
The GI50 was 13.8 µM.

And the TGI (OVCAR-3)?
Its TGI is 27.54 µM.

And the GI50 (NCI-H522)?
The GI50 was 11.7 µM.

What about the TGI (NCI-H522) of the same substance?
The TGI was 28.84 µM.

What about the GI50 (HOP-62) of the same substance?
Its GI50 is 13.2 µM.

And the TGI (HOP-62)?
Its TGI is 26.91 µM.

What about the GI50 (DU-145) of the same substance?
The GI50 was 3.98 µM.

What about the TGI (DU-145) of the same substance?
Its TGI is 16.21 µM.

And the GI50 (K-562)?
The GI50 was 18.2 µM.

And the TGI (K-562)?
Its TGI is over 100 µM.

And the GI50 (UACC-62)?
The GI50 was 13.8 µM.

And the TGI (UACC-62)?
The TGI was 26.30 µM.

What about the GI50 (KM12) of the same substance?
The GI50 was 10.2 µM.

What about the TGI (KM12) of the same substance?
The TGI was 23.98 µM.

What about the GI50 (A498) of the same substance?
Its GI50 is 17.4 µM.

And the TGI (A498)?
Its TGI is 31.62 µM.

And the GI50 (RXF 393)?
The GI50 was 5.75 µM.

And the TGI (RXF 393)?
Its TGI is 21.37 µM.

What about the GI50 (SR) of the same substance?
Its GI50 is 11 µM.

What about the TGI (SR) of the same substance?
Its TGI is 79.43 µM.

And the GI50 (MCF7)?
The GI50 was 5.12 µM.

What about the TGI (MCF7) of the same substance?
The TGI was 19.05 µM.

What about the GI50 (OVCAR-4) of the same substance?
Its GI50 is 12.9 µM.

What about the TGI (OVCAR-4) of the same substance?
Its TGI is 38.90 µM.

What about the GI50 (SNB-75) of the same substance?
The GI50 was 13.2 µM.

And the TGI (SNB-75)?
The TGI was 44.66 µM.

What about the GI50 (UO-31) of the same substance?
The GI50 was 15.1 µM.

And the TGI (UO-31)?
Its TGI is 29.51 µM.

And the GI50 (EKVX)?
Its GI50 is 12.9 µM.

What about the TGI (EKVX) of the same substance?
The TGI was 25.70 µM.

And the “TGI, panel MG_MID” value [1]?
Its value is 30.03 µM.

What about the “TGI, values range inside panel” value [1] of the same substance?
Its value is 25.70 to 39.81 µM.

And the GI50 ([1]; read-out: GI50, panel MG_MID)?
The GI50 was 14.1 µM.

And the GI50 [1, 2]?
Its GI50 is 10.2 to 19.5 µM.

And the GI50 (LOX IMVI)?
The GI50 was 5.62 µM.

What about the TGI (LOX IMVI) of the same substance?
Its TGI is 18.19 µM.

What about the GI50 (SNB-19) of the same substance?
Its GI50 is 10.2 µM.

And the TGI (SNB-19)?
Its TGI is 23.44 µM.

And the CC50 (SNB-19; read-out: LC50 (the source's name))?
The CC50 was 52.5 µM.
